Measured values taken from ChEMBL document CHEMBL4840359, “N-Terminus to Arginine Side-Chain Cyclization of Linear Peptidic Neuropeptide Y Y4 Receptor Ligands Results in Picomolar Binding Constants” (J Med Chem, 2021).

How the values were obtained:
[1] = biological target: T1, Neuropeptide Y receptor type 4 (Homo sapiens, UniProt P50391); test: Displacement of [3H]UR-KK200 from human neuropeptide Y Y4 receptor expressed in CHO-mtAEQ cells co-expressing Gqi5 measured after 90 mins by scintillation counting analysis; type: cell-based
[2] = biological target: T1, Neuropeptide Y receptor type 4; test: Displacement of [3H]UR-KK200 from human neuropeptide Y Y4 receptor expressed in CHO-mtAEQ cells co-expressing Gqi5 assessed as fold change in affinity measured after 90 mins by scintillation counting analysis relative to Ac-Arg-Tyr-Arg-Leu-Arg-Tyr-NH2; type: cell-based; details: filed as agonist
[3] = biological target: T2, Neuropeptide Y receptor type 1 (Homo sapiens, UniProt P25929); test: Displacement of [3H]UR-MK299 from human neuropeptide Y Y1 receptor in human SK-N-MC cells measured after 90 mins by scintillation counting analysis; type: cell-based
T2 sequence (P25929 whole entry): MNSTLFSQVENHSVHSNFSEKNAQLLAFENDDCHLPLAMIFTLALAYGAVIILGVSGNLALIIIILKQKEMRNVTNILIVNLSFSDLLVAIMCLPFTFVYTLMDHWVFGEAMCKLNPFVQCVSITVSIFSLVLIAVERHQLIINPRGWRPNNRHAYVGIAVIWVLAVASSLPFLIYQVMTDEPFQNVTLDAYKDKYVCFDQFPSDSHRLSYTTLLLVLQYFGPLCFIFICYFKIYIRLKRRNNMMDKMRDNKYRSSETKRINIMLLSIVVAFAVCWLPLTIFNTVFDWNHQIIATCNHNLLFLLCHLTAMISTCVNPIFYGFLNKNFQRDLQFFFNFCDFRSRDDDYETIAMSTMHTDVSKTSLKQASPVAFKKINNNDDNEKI

[4] = biological target: T3, Neuropeptide Y receptor type 2 (Homo sapiens, UniProt P49146); test: Displacement of [3H]UR-MK299 from human neuropeptide Y Y2 receptor expressed in CHO cells measured after 90 mins by scintillation counting analysis; type: cell-based
T3 sequence (P49146 whole entry): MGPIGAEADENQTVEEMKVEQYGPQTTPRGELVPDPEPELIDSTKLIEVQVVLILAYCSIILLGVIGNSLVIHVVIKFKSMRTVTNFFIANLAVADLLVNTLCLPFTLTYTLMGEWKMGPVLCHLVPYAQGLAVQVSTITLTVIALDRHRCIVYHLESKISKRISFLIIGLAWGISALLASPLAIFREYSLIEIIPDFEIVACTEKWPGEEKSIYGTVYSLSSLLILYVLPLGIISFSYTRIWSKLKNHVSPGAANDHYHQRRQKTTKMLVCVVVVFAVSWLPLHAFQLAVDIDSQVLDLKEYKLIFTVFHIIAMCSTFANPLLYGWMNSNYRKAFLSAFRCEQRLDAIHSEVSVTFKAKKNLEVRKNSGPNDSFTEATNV

[5] = biological target: T4, Neuropeptide Y receptor type 5 (Homo sapiens, UniProt Q15761); test: Displacement of [3H]propionyl-pNPY from human neuropeptide Y Y5 receptor in human HEC-1B cells measured after 90 mins by scintillation counting analysis; type: cell-based, HEC-1B cell line
T4 sequence (Q15761 whole entry): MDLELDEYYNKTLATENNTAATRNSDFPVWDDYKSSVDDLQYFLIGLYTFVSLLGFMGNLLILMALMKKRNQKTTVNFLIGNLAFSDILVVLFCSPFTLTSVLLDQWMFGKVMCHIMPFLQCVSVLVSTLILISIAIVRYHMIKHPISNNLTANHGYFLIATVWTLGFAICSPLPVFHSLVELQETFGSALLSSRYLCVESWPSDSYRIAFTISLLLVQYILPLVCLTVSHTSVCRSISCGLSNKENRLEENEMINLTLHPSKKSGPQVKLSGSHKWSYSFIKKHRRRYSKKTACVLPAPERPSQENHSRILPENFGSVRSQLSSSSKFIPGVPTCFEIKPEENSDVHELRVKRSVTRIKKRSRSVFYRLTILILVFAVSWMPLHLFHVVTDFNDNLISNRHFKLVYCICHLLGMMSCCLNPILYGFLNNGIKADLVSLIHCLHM

[6] = organism: Homo sapiens; test: (§1) Selectivity ratio, Ki for displacement of [3H]UR-MK299 from human neuropeptide Y Y1 receptor in human SK-N-MC cells measured after 90 mins by scintillation counting analysis to Ki for displacement of [3H]UR-KK200 from human neuropeptide Y Y4 receptor expressed in CHO-mtAEQ cells co-expressing Gqi5 measured after 90 mins by scintillation counting analysis; type: cell-based
[7] = organism: Homo sapiens; test: Selectivity ratio, Ki for displacement of [3H]UR-MK299 from human neuropeptide Y Y2 receptor expressed in CHO cells measured after 90 mins by scintillation counting analysis to Ki for displacement of [3H]UR-KK200 from human neuropeptide Y Y4 receptor expressed in CHO-mtAEQ cells co-expressing Gqi5 measured after 90 mins by scintillation counting analysis; type: cell-based
[8] = organism: Homo sapiens; test: as §1, with “[3H]propionyl-pNPY” for “[3H]UR-MK299”, “Y5” for “Y1”, “HEC-1B” for “SK-N-MC”; type: cell-based
[9] = biological target: T1, Neuropeptide Y receptor type 4; test: Agonist activity at human neuropeptide Y Y4 receptor expressed in HEK293T-ARRB1 cells assessed as stimulation of beta-arrestin 1 recruitment by multimode plate reader; type: functional, cell-based; details: read-out: EC50
[10] = biological target: T1, Neuropeptide Y receptor type 4; test: Intrinsic activity at human neuropeptide Y Y4 receptor expressed in HEK293T-ARRB1 cells assessed as stimulation of beta-arrestin 1 recruitment by multimode plate reader relative to hPP; type: functional, cell-based
[11] = biological target: T1, Neuropeptide Y receptor type 4; test: Agonist activity at human neuropeptide Y Y4 receptor expressed in HEK293T-ARRB2 cells assessed as stimulation of beta-arrestin 2 recruitment by multimode plate reader; type: functional, cell-based
[12] = biological target: T1, Neuropeptide Y receptor type 4; test: Intrinsic activity at human neuropeptide Y Y4 receptor expressed in HEK293T-ARRB2 cells assessed as stimulation of beta-arrestin 2 recruitment by multimode plate reader relative to hPP; type: functional, cell-based
[13] = biological target: T1, Neuropeptide Y receptor type 4; test: Agonist activity at human neuropeptide Y Y4 receptor expressed in CHO-mtAEQ cells co-expressing Gqi5 by calcium aequorin assay; type: functional, cell-based
[14] = biological target: T1, Neuropeptide Y receptor type 4; test: Intrinsic activity at human neuropeptide Y Y4 receptor expressed in CHO-mtAEQ cells co-expressing Gqi5 by calcium aequorin assay; type: functional, cell-based
[15] = biological target: T1, Neuropeptide Y receptor type 4; test: Intrinsic activity at human neuropeptide Y Y4 receptor expressed in HEK293T cells co-expressing CRE-controlled gene reporter firefly luciferase assessed as relative luminescence measured after 15 mins relative to hPP; type: functional, cell-based
[16] = Stability of the compound in pH 7.4 PBS buffer measured up to 48 hrs by reversed-phase HPLC analysis; type: physicochemical; details: pH 7.4, 48 h
[17] = Stability in human plasma assessed as intact peptide measured after 30 mins at 37 degC by RP-HPLC analysis; type: ADME, cell-free; details: read-out: Stability
[18] = Stability in human plasma assessed as intact peptide measured after 1 hr at 37 degC by RP-HPLC analysis; type: ADME, cell-free; details: read-out: Stability
[19] = Stability in human plasma assessed as intact peptide measured after 2 hr at 37 degC by RP-HPLC analysis; type: ADME, cell-free; details: read-out: Stability
[20] = Stability in human plasma assessed as intact peptide measured after 6 hr at 37 degC by RP-HPLC analysis; type: ADME, cell-free; details: read-out: Stability
[21] = Stability in human plasma assessed as half life at 37 degC by RP-HPLC analysis; type: ADME, cell-free
[22] = Stability in human plasma assessed as intact peptide in presence of rami-pril measured at 50 uM after 24 hrs at 37 degC by LC-HRMS analysis; type: ADME, cell-free
[23] = biological target: T1, Neuropeptide Y receptor type 4; test: Agonist activity at human neuropeptide Y Y4 receptor expressed in HEK293T cells co-expressing CRE-controlled gene reporter firefly luciferase assessed as relative luminescence measured after 15 mins; type: functional, cell-based
[24] = Stability in human plasma assessed as intact peptide measured after 24 hrs at 37 degC by RP-HPLC analysis; type: ADME, cell-free; details: read-out: Stability
[25] = Inhibition of ACE (unknown origin); design: species or system Homo sapiens

T1 sequence (P50391 whole entry): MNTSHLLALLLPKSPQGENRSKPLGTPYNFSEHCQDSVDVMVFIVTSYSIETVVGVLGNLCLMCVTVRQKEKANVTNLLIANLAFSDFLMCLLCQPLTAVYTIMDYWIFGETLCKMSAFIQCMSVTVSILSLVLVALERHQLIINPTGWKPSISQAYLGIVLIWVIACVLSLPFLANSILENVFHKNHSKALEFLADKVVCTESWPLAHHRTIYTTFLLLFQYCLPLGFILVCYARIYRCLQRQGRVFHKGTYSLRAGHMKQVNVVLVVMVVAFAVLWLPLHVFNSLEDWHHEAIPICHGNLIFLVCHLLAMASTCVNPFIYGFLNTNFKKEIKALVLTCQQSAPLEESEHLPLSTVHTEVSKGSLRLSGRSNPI

Compound	Ki ([1]; read-out: Ki) [nM]	fold change (FC) [2]	Ki ([3]; read-out: pKi (converted)) [nM]	Ki ([4]; read-out: Ki) [nM]	Ki ([4]; read-out: pKi (converted)) [nM]	Ki ([5]; read-out: pKi (converted)) [nM]	Selectivity ratio [6]	Selectivity ratio [7]	Selectivity ratio [8]	EC50 [9] [nM]	Intrinsic activity [10] [%]	EC50 [11] [nM]	Intrinsic activity [12] [%]	EC50 [13] [nM]	Intrinsic activity [14] [%]	Intrinsic activity [15] [%]	remaining at 0.5 h [17] [%]	remaining at 2 h [19] [%]	remaining at 6 h [20] [%]	half-life [21] [h]	further results
CC(C)C[C@H](NC(=O)[C@@H]1CCCNC(=N)NC(=O)NCCCCNC(=O)CCC(=O)N[C@@H](CCCNC(=N)N)C(=O)N[C@@H](Cc2ccc(O)cc2)C(=O)N1)C(=O)N[C@@H](CCCNC(=N)N)C(=O)N[C@@H](Cc1ccc(O)cc1)C(N)=O	0.048	71	> 3160	> 10000	> 10000	> 1000	> 60000	> 200	> 60000	3.6	68	1.58	73	2.69	82	89	> 99	52	3	1.9	Ki ([1]; read-out: pKi (converted)): 0.0437 nM; Ki ([3]; read-out: Ki): > 3000 nM; Ki ([5]; read-out: Ki): > 3000 nM; Stability [16]: Stable; remaining at 1 h [18]: 85%; Stability [22]: Stable
CC(C)C[C@H](NC(=O)[C@H](CCCNC(=N)NC(=O)NCCCCN)NC(=O)[C@H](Cc1c[nH]c2ccccc12)NC(=O)[C@H](CCCNC(=N)N)NC(=O)CCC(=O)O)C(=O)N[C@@H](CCCNC(=N)N)C(=O)N[C@@H](Cc1ccc(O)cc1)C(N)=O	2.1	1.6	> 10000	> 3000	> 3160	> 10000	> 4700	> 1400	> 4700	120	67	162	76	105	67	95	94	87	67	7.9	Ki ([1]; read-out: pKi (converted)): 1.95 nM; Ki ([3]; sk-n-mc, read-out: Ki): > 10000 nM; EC50 [23]: 12 nM; remaining at 24 h [24]: 3%; Stability [22]: Stable
CC(C)C[C@H](NC(=O)[C@@H]1CCCNC(=N)NC(=O)NCCCCNC(=O)CCC(=O)N[C@@H](CCCNC(=N)N)C(=O)N[C@@H](Cc2c[nH]c3ccccc23)C(=O)N1)C(=O)N[C@@H](CCCNC(=N)N)C(=O)N[C@@H](Cc1ccc(O)cc1)C(N)=O	0.033	103	> 10000	> 10000	> 10000	> 1000	> 300000	> 300	> 90000	1	98	1.66	80	1	84	95	94	57	19	2.6	Ki ([3]; sk-n-mc, read-out: Ki): > 10000 nM; Ki ([5]; read-out: Ki): > 3000 nM; EC50 [23]: 1.41 nM; Stability [16]: Stable; remaining at 1 h [18]: 87%; Stability [22]: Stable
CCOC(=O)[C@H](CCc1ccccc1)N[C@@H](C)C(=O)N1[C@H](C(=O)O)C[C@@H]2CCC[C@@H]21																					pIC50 [25]: 7.6
CC(C)C[C@H](NC(=O)[C@H](CCCNC(=N)NC(=O)NCCCCN)NC(=O)[C@H](Cc1ccc(O)cc1)NC(=O)[C@H](CCCNC(=N)N)NC(=O)CCC(=O)O)C(=O)N[C@@H](CCCNC(=N)N)C(=O)N[C@@H](Cc1ccc(O)cc1)C(N)=O	13	2.6	> 10000	> 10000	> 10000	> 10000	> 7600	> 7600	> 7600	160	75	141	83	204	70	88	> 99	91	49	5.9	Ki ([1]; read-out: pKi (converted)): 1.26 nM; Ki ([3]; sk-n-mc, read-out: Ki): > 10000 nM; EC50 [23]: 17 nM; remaining at 24 h [24]: 3%; Stability [22]: Stable
